Results on eleven compounds are retold here after patent publication US20100310536A1, “METHOD FOR EXPANDING HEMATOPOIETIC STEM CELLS USING HETEROCYCLIC COMPOUND” (Nissan Chemical Industries Limited, priority 2007, published 2010).

One assay deals with human cord blood-derived CD34+ cells. Nature of the assay: Expansion of CD34+ cells from human cord blood-derived CD34+ cells (7-day liquid culture with SCF, flow cytometry count). The class given is cell-based. Particulars: 168 h, 0.3 μg/mL compound, number of CD34+ cells relative to absence of compound, 100 ng/mL SCF, 7 days, 37° C., read-out: Expansion efficiency. Here is the method: Commercially available human cord blood-derived CD34^+ cells (Cambrex Bio Science Walkersville) were plated on a 12-well plate (Corning) (from 5000 to 10000 cells/1 mL/well). As the culture medium, StemSpan SFEM (Stemcell Technologies) containing 100 ng/mL SCF (R&D Systems) was used, and Compounds Nos. 1 to 11 dissolved in dimethyl sulfoxide were added in an amount of 0.1% (v/v) to a final concentration of 0.3 or 1 μg/mL.
After the cells were incubated in liquid culture at 37° C. for 7 days in a CO2 incubator (in an atmosphere containing 5 vol % CO2), the total number of cells was counted by trypan blue assay (Invitrogen) or Flow-Count™ fluorosphere assay (Beckman Coulter). The number of CD34^+ cells was calculated as follows. After the incubation, the cells in the liquid culture was stained with a CD34 antibody (PE, Becton, Dickinson and Company). The stained cells were analyzed with a flow cytometer (Beckman Coulter) to determined the proportion of CD34^+ cells, which was multiplied by the total number of cells to calculate the number of CD34^+ cells.
The expansion efficiencies in the presence of 0.3 μg/mL or 1 μg/mL of compounds based on the number of CD34^+ cells in the absence of them are shown in Table 1 on a scale of A for expansion efficiencies of 3 or greater, B for expansion efficiencies of at least 2 and less than 3, and C for expansion efficiencies of at least 1.4 and less than 2.
A general note: A flow cytometer gives signals particle by particle.
`C/C(=N\NC(=O)c1ccc(C(=O)NNc2ccccn2)s1)c1csc(-c2ccc(Cl)c(Cl)c2)c1O` [compound 5]: the fold induction at 0.3 µg/mL is 1.4 to 2.

`C/C(=N\NC(=O)c1ccc(C(=O)N(N)Cc2ccncc2)s1)c1csc(-c2ccc(Cl)c(Cl)c2)c1O` [compound 6]: the fold induction at 0.3 µg/mL was 1.4 to 2.

As for `C/C(=N\NC(=O)c1ccc(C(=O)Cn2ccc(=O)cc2)s1)c1csc(-c2ccc(Cl)c(Cl)c2)c1O` [compound 7], the fold induction at 0.3 µg/mL fell in the range of 1.4 to 2.

As for `C/C(=N\NC(=O)c1ccc(C(=O)CSc2ccncc2)s1)c1csc(-c2ccc(Cl)c(Cl)c2)c1O` [compound 8], the fold induction at 0.3 µg/mL lay within 2 to 3.

For `C/C(=N\NC(=O)c1ccc(C(=O)N2CCS(=O)(=O)CC2)s1)c1csc(-c2ccc(Cl)c(Cl)c2)c1O` [compound 9], the fold induction at 0.3 µg/mL lay in the range of 1.4 to 2.

Still in this assay, the particulars now being: 168 h, 1 μg/mL compound, number of CD34+ cells relative to absence of compound, 100 ng/mL SCF, 7 days, 37° C., read-out: Expansion efficiency.
`CC(=O)NC1CCN(C(=O)c2ccc(C(=O)N/N=C(\C)c3csc(-c4ccc(Cl)c(Cl)c4)c3O)s2)C1` (centres unmarked) [compound 1]: the fold induction at 1 µg/mL was ≥ 3.

Consider `C/C(=N\NC(=O)c1ccc(C(=O)NN(C)C)s1)c1csc(-c2ccc(Cl)c(Cl)c2)c1O` [compound 2], for which the fold induction at 1 µg/mL is ≥ 3.

As for `C/C(=N\NC(=S)Nc1cccc(C(=O)NCCC(N)=O)c1)c1csc(-c2ccc(Cl)c(Cl)c2)c1O` [compound 3], the fold induction at 1 µg/mL is ≥ 3.

As for `C/C(=N\NC(=O)c1ccc(C(=O)N2CC(O)C(O)C2)s1)c1csc(-c2ccc(Cl)c(Cl)c2)c1O` (centres unmarked) [compound 4], the fold induction at 1 µg/mL was ≥ 3.

Consider `C/C(=N\NC(=O)c1ccc(C(=O)CSc2cc[n+]([O-])cc2)s1)c1csc(-c2ccc(Cl)c(Cl)c2)c1O` [compound 10], for which the fold induction at 1 µg/mL was ≥ 3.

`C/C(=N\NC(=O)c1ccc(C(=O)COc2cc(C)nn2C)s1)c1csc(-c2ccc(Cl)c(Cl)c2)c1O` [compound 11]: the fold induction at 1 µg/mL was in the range of 2 to 3.
